Results published in patent US20060135569A1, “Use of benzisoselenazolone compounds against ischemic myocardial damage” (priority 2002, published 2006).
Marks after values point to notes of the source that are not given here.

Key:
[1] = tested on: acute myocardial ischemia in anesthetized dogs; test: Acute myocardial ischemia and infarction in anesthetized dogs; type: in vivo, dog
Protocol: Dogs were divided into three groups: 1, vehicle control group, PEG 1 ml/kg, n=5; 2, dilthiazem group, 5 mg/kg, n=5; 3, IMM-004 group, 30 mg/kg, n=5. The tested drugs were prepared in distilled water at volume of 1 ml/kg. The tested items were administrated via duodenum by animals.

KM mice = test: Acute toxicity study in mice; type: in vivo; conditions: all dose groups, mice
Protocol: Acute toxicity studies were performed with IMM-004 and IMM-127 (synthesized by ourselves). The compound was provided as powder, which was milled and suspended in 0.5% carboxymethylcellulose sodium (CMC—Na) before use.
Male KM mice weighting 19±2 g were housed for an adaptation before use. Mice were randomly divided into groups, and each group consists of 10 animals. Mice were all fasted for 14 hrs before the administration of the tested compounds. Activity of mice in high dose group was reduced 30 min after the administration. 24 h after the administration, mice in each group were restored to normal. Mice were observed daily for a period of 7 days after the administration.

TA97 = test: Ames test, strain TA97; type: cell-based
Protocol: (§1) To assess the mutagenic effects of 5 compounds (IMM-004; IMM-065; IMM-127; IMM-128; IMM-313), the Ames test was performed in 4 strains (TA97; TA98; TA100; TA102). The experiment was conducted with compounds at 4 concentration levels (0.5, 5, 50 and 500 μg/dish). […]

[2] = tested on: isolated rat hearts subjected to ischemia-reperfusion (I/R); test: Isolated heart subjected to ischemia/reperfusion injury (arrhythmia)
Outline: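 Rat hearts perfused in vitro and subjected to ischemia-reperfusion after drug exposure. Recorded endpoints: duration of ventricular arrhythmia and incidence of ventricular extrasystole and VT/VF.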

[3] = tested on: arrhythmia induced by ischemia/reperfusion insults in anesthetized rats; test: Ischemia/reperfusion arrhythmia in anesthetized rats, oral administration; type: in vivo, rat
Protocol: IMM-004 and IMM-127 were dissolved in the solution of ethanol and PEG (ethanol: PEG (v/v)=1:9). Rats were orally administrated the compounds at volume of 10 ml/Kg. The left anterior descending coronary artery was ligated in rats for 15 min at 60 min after the administration, and then the reprefusion was achieved.
Arrhythmic potency induced by myocardial insults was used to assess the potential protective effect of the compounds.

TA100 = test: Ames test, strain TA100; type: cell-based
Protocol: as §1

TA102 = test: Ames test, strain TA102; type: cell-based
Protocol: as §1

normal rats = test: Cardiac function and hemodynamics in normal rats; type: in vivo, rat; conditions: 30 mg/kg orally; normal anesthetized rats
Protocol: Method: Male SD rats, weighing 300-350 g were fasted for 12 hrs and anesthetized by i.p. treatment with 20% Urethane (0.5 ml/100 g, 1 g/kg). Polyethylene tubes (PE-50) were inserted into the left femoral artery, left femoral vein, right femoral vein and the left ventricle. The left femoral artery was cannulated for blood collection, and the left femoral vein was cannulated for liquid compensation, the right femoral artery was cannulated for blood pressure detection, the left ventricle was cannulated for ventricular pressure detection, the left femoral artery and ventricle were cannulated and the catheter was linked with pressure transducer by triplet. Signals were acquired by oscillograph and multi-channel biodynamic recorder linked with the pressure transducer. Rats in drug-treating group were orally administered with IMM-004 at 30 mg/kg, while rats in vehicle control group was orally treated with equal volume of vehicle (PEG). Left ventricular systolic pressure (LVSP), left ventricular end-diastolic pressure (LVEDP), and maximum rate of left ventricular pressure (±dp/dtmax), artery systolic pressure (SP), artery diastolic pressure (DP), mean artery pressure (MAP) and heart rate (HR) were recorded 40 min after the administration. Signals were continuously recorded in every 10 min.

[4] = N-BT staining, Dilthiazem 5 mg/kg, IMM-004 30 mg/kg, % according to b137
[5] = 10^−6 M, isolated heart ischemia/reperfusion

O=c1c2cc(Cl)ccc2[se]n1-c1ccccn1 [IMM-004, 5-chloro-2-(2-pyridyl)-1,2-benz-isoselenazol-3(2H)-one]
infarction size (of heart) decrease compared with the vehicle control ([1]; 30 mg/kg): 69.18%
infarction size (of ventricle) decrease compared with the vehicle control ([1]; 30 mg/kg): 67.94%
Σ-ST decreased by ([1]; 30 mg/kg via duodenum, 180 min after administration): 53.90±20.60%
severity of myocardial ischemia (Σ-ST) ([1]; 30 mg/kg via duodenum, 180 min after administration, from 325.20±55.95 mV): 146.80±60.25 mV
Coronary flow (under heading arterial and venous blood oxygen content) ([1]; 30 mg/kg, 120 min and 180 min after administration, vs baseline): significantly increased
Myocardial infarction size, % of heart ([1]; 30 mg/kg, N-BT staining): 2.04±0.93%
Myocardial infarction size, % of ventricular ([1]; 30 mg/kg, N-BT staining): 5.08±2.00%
elevation of LDH activity ([1]; 30 mg/kg, vs vehicle control): no effect
elevation of serum AST ([1]; 30 mg/kg, vs vehicle control): significantly inhibited
elevation of serum CK ([1]; 30 mg/kg, vs vehicle control): significantly inhibited
Coronary flow increase verse the baseline ([1]; 30 min after treatment, 30 mg/kg): 15.02±22.16%
Infarction area/ heart area [1, 4]: 2.04 ± 0.93
Infarction area/ventricle area [1, 4]: 5.08 ± 2.00
Infarction area mm^2 ([1]; N-BT staining, Dilthiazem 5 mg/kg, IMM-004 30 mg/kg, X ± SD): 255.70 ± 58.2*** mm^2
Myocardial infarction size, in words ([1]; N-BT staining, IMM-004 30 mg/kg, dilthiazem 5 mg/kg): significantly reduced
Coronary flows, in words ([1]; after treatment, dilthiazem 5 mg/kg, IMM-004 30 mg/kg): significantly increased
mortality in the dose groups (KM mice): no mortality
TA97 +S9 (TA97; 0.5 μg/dish): 55.33 ± 24.36
TA97 −S9 (TA97; 0.5 μg/dish): 54.33 ± 4.78
TA97 +S9 (TA97; 5 μg/dish): 80.67 ± 8.58
TA97 −S9 (TA97; 5 μg/dish): 54.67 ± 4.99
TA97 +S9 (TA97; 50 μg/dish): 204.67 ± 29.41
TA97 −S9 (TA97; 50 μg/dish): 47.00 ± 5.72
TA97 +S9 (TA97; 500 μg/dish): 67.33 ± 36.59
TA97 −S9 (TA97; 500 μg/dish): 55.50 ± 3.50
protective effects on myocardial insults ([2]; 10^−6M, isolated heart): significant protective effects
AAT: arrhythmic occurrence time, Time [2, 5]: 0.70 ± 0.33 min
VF (ventricular fibrillation) Incidence rate (%) [2, 5]: 0** %
VPS (ventricular premature beats) Incidence rate (%) [2, 5]: 37.5%
VT (ventricular tachycardia) Incidence rate (%) [2, 5]: 37.5%
protective effect: incidence/duration of VT, VF, duration of ventricular arrhythmic ([3]; 10 mg/Kg orally, rats): No protective effect
Occurrence time ([3]; 10 mg/Kg p.o.): 9.3 ± 10.0 s
VE Duration time ([3]; 10 mg/Kg p.o.): 4.7 ± 12.9 s
VE Incidence (%) ([3]; 10 mg/Kg p.o.): 100%
VF Duration time ([3]; 10 mg/Kg p.o.): 8.8 ± 7.4 s
VF Incidence (%) ([3]; 10 mg/Kg p.o.): 22.2%
VT Duration time ([3]; 10 mg/Kg p.o.): 30.2 ± 17.6 s
VT Incidence (%) ([3]; 10 mg/Kg p.o.): 88.9%
protective effect: incidence/duration of VT, VF, duration of ventricular arrhythmic ([3]; 30 mg/Kg orally, rats): all reduced
Occurrence time ([3]; 30 mg/Kg p.o.): 19.6 ± 24.1 s
VE Duration time ([3]; 30 mg/Kg p.o.): 0.4 ± 1.3 s
VE Incidence (%) ([3]; 30 mg/Kg p.o.): 66.7%
VF Duration time ([3]; 30 mg/Kg p.o.): 3.3 ± 5.7 s
VF Incidence (%) ([3]; 30 mg/Kg p.o.): 11.1* %
VT Duration time ([3]; 30 mg/Kg p.o.): 17.0 ± 12.6 s
VT Incidence (%) ([3]; 30 mg/Kg p.o.): 44.4** %
Occurrence time ([3]; 100 mg/Kg p.o.): 16.4 ± 25.1 s
VE Duration time ([3]; 100 mg/Kg p.o.): 5.5 ± 10.2 s
VE Incidence (%) ([3]; 100 mg/Kg p.o.): 66.7%
VF Duration time ([3]; 100 mg/Kg p.o.): 3.9 ± 6.8 s
VF Incidence (%) ([3]; 100 mg/Kg p.o.): 33.3%
VT Duration time ([3]; 100 mg/Kg p.o.): 22.7 ± 19.4 s
VT Incidence (%) ([3]; 100 mg/Kg p.o.): 55.5* %
protective effect: incidence/duration of VT, duration of ventricular arrhythmic ([3]; 100 mg/kg orally, rats): all reduced
TA100 +S9 (TA100; 0.5 μg/dish): 191.33 ± 44.25
TA100 −S9 (TA100; 0.5 μg/dish): 121.00 ± 8.52
TA100 +S9 (TA100; 5 μg/dish): 215.33 ± 23.68
TA100 −S9 (TA100; 5 μg/dish): 58.33 ± 29.39
TA100 +S9 (TA100; 50 μg/dish): 126.00 ± 31.79
TA100 −S9 (TA100; 50 μg/dish): 89.67 ± 14.70
TA100 +S9 (TA100; 500 μg/dish): 160.00 ± 21.33
TA100 −S9 (TA100; 500 μg/dish): 78.33 ± 13.52
TA102 +S9 (TA102; 0.5 μg/dish): 328.67 ± 26.39
TA102 −S9 (TA102; 0.5 μg/dish): 164.67 ± 62.66
TA102 +S9 (TA102; 5 μg/dish): 250.67 ± 7.54
TA102 −S9 (TA102; 5 μg/dish): 218.67 ± 23.79
TA102 +S9 (TA102; 50 μg/dish): 297.33 ± 24.07
TA102 −S9 (TA102; 50 μg/dish): 52.67 ± 6.59
TA102 +S9 (TA102; 500 μg/dish): 284.00 ± 64.27
TA102 −S9 (TA102; 500 μg/dish): 16.00 ± 5.89
LVSP, LVEDP, ±dp/dtmax, SP, DP, MAP and heart rate (HR) (normal rats): not significantly influenced
